Active and inactive are the calls of the source. The calls are words filed in the database; no cut-off is given here. Residues, ends and D or L forms follow the SMILES beside them. *: point of attachment. X1 = O=c1nc(N*)ccn1[C@@H]1O[C@H](CO)[C@@H](O)C1(F)F
Columns and labels:
[1] = Drug uptake in mouse B16F10 cells using 5,6-carboxyfluorescein-labeled compound at 20 ug/ml after 4 hrs by DAPI staining-based fluorescence microscopic method; type: ADME, cell-based; conditions: b16-f10, 4 h
B16-F10 [2] = assay: Ratio of drug uptake in mouse B16F10 cells at 20 ug/ml after 4 hrs by flow cytometric method to drug uptake in mouse B16F10 cells at 20 ug/ml after 30 mins by flow cytometric method; type: ADME, cell-based
[3] = Hemolytic activity in rat erythrocytes at 100 uM after 1 hr relative to control; type: ADME, cell-based, Erythrocyte; conditions: read-out: Activity
[4] = Metabolic stability in rat serum assessed as parent compound remaining using 99mTc(CO)3-labeled compound after 24 hrs by TLC method; type: ADME, cell-free; conditions: read-out: Stability
[5] = Drug degradation in histidine solution using 99mTc(CO)3-labeled compound after 24 hrs by TLC method; type: physicochemical; conditions: read-out: Drug degradation
[6] = n-Octanol-phosphate buffer partition co-efficient, log P of 99mTc(CO)3-labeled compound at 2 to 3 KBq after 1 min by gamma scintillation counting method; type: physicochemical
[7] = Drug uptake in mouse B16F10 cells using 99mTc(CO)3-labeled compound at 15 to 20 MBq/ml after 30 mins by gamma scintillation counting method relative to total added activity; type: ADME, cell-based; conditions: b16-f10, 0.5 h
[8] = Drug uptake in mouse B16F10 cells using 99mTc(CO)3-labeled compound at 15 to 20 MBq/ml after 240 mins by gamma scintillation counting method relative to total added activity; type: ADME, cell-based; conditions: b16-f10, 4 h
[9] = Drug uptake in spleen of Balb/c mouse allografted with mouse B16F10 cells using 99mTc(CO)3-labeled compound at 10 to 12 MBq/kg, iv measured at 2 hrs; type: ADME, organism-based; conditions: in vivo
[10] = Drug uptake in muscle of Balb/c mouse allografted with mouse B16F10 cells using 99mTc(CO)3-labeled compound at 10 to 12 MBq/kg, iv measured at 2 hrs; type: ADME, organism-based, Muscle tissue; conditions: in vivo
[11] = Drug uptake in kidney of Balb/c mouse allografted with mouse B16F10 cells using 99mTc(CO)3-labeled compound at 10 to 12 MBq/kg, iv measured at 2 hrs; type: ADME, organism-based; conditions: in vivo
[12] = Drug uptake in stomach of Balb/c mouse allografted with mouse B16F10 cells using 99mTc(CO)3-labeled compound at 10 to 12 MBq/kg, iv measured at 2 hrs; type: ADME, organism-based; conditions: in vivo
[13] = Drug uptake in urine of Balb/c mouse allografted with mouse B16F10 cells using 99mTc(CO)3-labeled compound at 10 to 12 MBq/kg, iv measured at 2 hrs; type: ADME, organism-based; conditions: in vivo
[14] = Ratio of drug level in tumor to blood of Balb/c mouse allografted with mouse B16F10 cells using 99mTc(CO)3-labeled compound at 10 to 12 MBq/kg, iv measured at 2 hrs; type: ADME, organism-based, Tumor/tissue
[15] = Ratio of drug level in tumor to muscle of Balb/c mouse allografted with mouse B16F10 cells using 99mTc(CO)3-labeled compound at 10 to 12 MBq/kg, iv measured at 2 hrs; type: ADME, organism-based, Tumor/tissue; conditions: in vivo
[16] = Drug uptake in heart of Balb/c mouse allografted with mouse B16F10 cells using 99mTc(CO)3-labeled compound at 10 to 12 MBq/kg, iv measured at 4 hrs; type: ADME, organism-based; conditions: in vivo
[17] = Drug uptake in lung of Balb/c mouse allografted with mouse B16F10 cells using 99mTc(CO)3-labeled compound at 10 to 12 MBq/kg, iv measured at 4 hrs; type: ADME, organism-based; conditions: in vivo
[18] = Drug uptake in muscle of Balb/c mouse allografted with mouse B16F10 cells using 99mTc(CO)3-labeled compound at 10 to 12 MBq/kg, iv measured at 4 hrs; type: ADME, organism-based, Muscle tissue; conditions: in vivo
[19] = Drug uptake in tumor muscle of Balb/c mouse allografted with mouse B16F10 cells using 99mTc(CO)3-labeled compound at 10 to 12 MBq/kg, iv measured at 4 hrs; type: ADME, organism-based; conditions: in vivo
[20] = Drug uptake in intestine of Balb/c mouse allografted with mouse B16F10 cells using 99mTc(CO)3-labeled compound at 10 to 12 MBq/kg, iv measured at 4 hrs; type: ADME, organism-based; conditions: in vivo
[21] = Drug uptake in stomach of Balb/c mouse allografted with mouse B16F10 cells using 99mTc(CO)3-labeled compound at 10 to 12 MBq/kg, iv measured at 4 hrs; type: ADME, organism-based; conditions: in vivo
[22] = Drug uptake in urine of Balb/c mouse allografted with mouse B16F10 cells using 99mTc(CO)3-labeled compound at 10 to 12 MBq/kg, iv measured at 4 hrs; type: ADME, organism-based; conditions: in vivo
[23] = Ratio of drug level in tumor to blood of Balb/c mouse allografted with mouse B16F10 cells using 99mTc(CO)3-labeled compound at 10 to 12 MBq/kg, iv measured at 4 hrs; type: ADME, organism-based, Tumor/tissue
[24] = Ratio of drug level in tumor to muscle of Balb/c mouse allografted with mouse B16F10 cells using 99mTc(CO)3-labeled compound at 10 to 12 MBq/kg, iv measured at 4 hrs; type: ADME, organism-based, Tumor/tissue; conditions: in vivo
[25] = Drug uptake in tumor of Balb/c mouse allografted with mouse B16F10 cells using 99mTc(CO)3-labeled compound at 4 to 8 MBq, iv measured at 4 hrs by scintigraphic imaging method; type: ADME, organism-based, Neoplasm; conditions: in vivo
[26] = Drug uptake in liver of Balb/c mouse allografted with mouse B16F10 cells using 99mTc(CO)3-labeled compound at 4 to 8 MBq, iv measured at 4 hrs by scintigraphic imaging method; type: ADME, organism-based; conditions: in vivo
[27] = Drug uptake in gastrointestinal tract of Balb/c mouse allografted with mouse B16F10 cells using 99mTc(CO)3-labeled compound at 4 to 8 MBq, iv measured at 4 hrs by scintigraphic imaging method; type: ADME, organism-based; conditions: in vivo
[28] = Drug uptake in urinary bladder of Balb/c mouse allografted with mouse B16F10 cells using 99mTc(CO)3-labeled compound at 4 to 8 MBq, iv measured at 4 hrs by scintigraphic imaging method; type: ADME, organism-based; conditions: in vivo
B16-F10 [29] = assay: Induction of apoptosis in mouse B16F10 cells at IC50 after 72 hrs by annexin V-FITC/propidium iodide staining-based flow cytometric method relative to control; type: functional
B16-F10 [30] = assay: Induction of apoptosis in mouse B16F10 cells assessed as necrotic cells at IC50 after 72 hrs by annexin V-FITC/propidium iodide staining-based flow cytometric method relative to control; type: functional
Mus musculus = assay: Toxicity in mouse B16F10 cells allografted Balb/c mouse assessed as effect on body weight at 25 mg/kg, iv administered thrice weekly for 21 days starting on day 10 post tumor implantation (reference value: 30.52 +/- 2.9 g); type: organism-based; conditions: in vivo, 504 h
B16-F10 [31] = assay: Antitumor activity against mouse B16F10 cells allografted in Balb/c mouse assessed as decrease in tumor development at 25 mg/kg, iv administered thrice weekly for 21 days starting on day 10 post tumor implantation by haematoxylin and eosin staining-based method; type: functional, organism-based
B16-F10 [32] = assay: Antitumor activity against mouse B16F10 cells allografted in Balb/c mouse assessed as decrease in formation of new blood vessels in tumor at 25 mg/kg, iv administered thrice weekly for 21 days starting on day 10 post tumor implantation by haematoxylin and eosin staining-based method; type: functional, organism-based
[33] = Drug uptake in mouse B16F10 cells using 99mTc(CO)3-labeled compound at 15 to 20 MBq/ml after 240 mins by gamma scintillation counting method; type: ADME, cell-based; conditions: b16-f10, 4 h

Drug uptake [1]: Active | Ratio (B16-F10 [2]): 4.4 | remaining at 24 h [4]: ≥ 92% | degraded at 24 h [5]: 5% | logP at 1 min [6]: -0.629 | Drug uptake [7]: 4.99% | Drug uptake [8]: 9.87% | Drug uptake [9]: 0.69 % ID/g | Drug uptake [10]: 0.17 % ID/g | Drug uptake [11]: 18.96 % ID/g | Drug uptake [12]: 0.25 % ID/g | Drug uptake [13]: 41.21 %ID/ml | Kp at 2 h [14]: 0.95 | Ratio [15]: 10.64 | Drug uptake [16]: 0.04 % ID/g | Drug uptake [17]: 0.25 % ID/g | Drug uptake [18]: 0.15 % ID/g | Drug uptake [19]: 2.81 % ID/g | Drug uptake [20]: 6.28 % ID/g | Drug uptake [21]: 0.17 % ID/g | Drug uptake [22]: 48.21 %ID/ml | Kp at 4 h [23]: 1.77 | Ratio [24]: 18.73 | Drug uptake [25]: Active | Drug uptake [26]: Active | Drug uptake [27]: Active | Drug uptake [28]: Active | Drug uptake [33]: 80%
SMILES: NCCCC[C@H](NC(=O)CNC(=O)[C@H](Cc1cnc[nH]1)NC(=O)[C@H](CCCCN)NC(=O)[C@H](Cc1ccc(O)cc1)NC(=O)[C@@H](N)Cc1cnc[nH]1)C(=O)N[C@@H](CC(=O)Nc1ccn([C@@H]2O[C@H](CO)[C@@H](O)C2(F)F)c(=O)n1)C(N)=O (H-HYKHGKD(X1)-NH2)
hemolysis at 1 h, 100 µM [3]: 7 to 9% | Activity (B16-F10 [29]): 61% | Activity (B16-F10 [30]): 12 - 14% | Activity (Mus musculus): 25.15 g | Activity (B16-F10 [31]): Active | Activity (B16-F10 [32]): Active

— ChEMBL document CHEMBL4257490, “Development of a peptide-based bifunctional chelator conjugated to a cytotoxic drug for the treatment of melanotic melanoma” (Medchemcomm, 2018)
